Laboratory results from patent US20050277696A1, “Novel use of cytotoxic drugs for treatment and prophylasxis of aging diseases by reversing the loss of elasticity of epithelial cells due to aging” (priority 2004, published 2005).

System: human epithelial cells
Experiment: clonal growth of human epithelial cells in cell culture over 7 days (surviving colonies counted)
Type: cell-based
From the text: Therefore, before the comparison of results based on rigidity of older cells against younger and more elastic cells, the proper concentration of the drug must be found. Dissolved in an appropriate solvent (for example, dimethylsulfoxide for Cytochalasin D, B and Latrunculin A, B, Jasplakinolide), the drug should be added to the cell culture medium. […] The amount of the drug should not be in such a high concentration that would result in the destruction of the cells. As an example, when the treatment of the old cells is done with Cytochalasin B, a cell permeable fungal toxin which binds to the barbed end of actin filaments and results in the inhibition of both the association and dissociation of its subunits, a 4 μg/mL solution of Cytochalasin B in the medium was optimal to treat viable cells for 12 hours. This concentration was determined by performing experiments to measure clonal growth of human epithelial cells in cell culture over 7 days in different concentrations of the drug. The number of surviving colonies of cells was counted to determine the range of concentrations that were non-toxic or non-cytostatic. This range was from 1.0 to 10 μg/mL. The determination of the appropriate concentration of a cytotoxic drug is dependent upon the particular drug of choice, but one skilled in the art would recognize methods to determine the appropriate drug concentration.

C=C1[C@@H](C)[C@H]2[C@H](Cc3ccccc3)NC(=O)[C@]23OC(=O)/C=C/[C@H](O)CCC[C@@H](C)C/C=C/[C@H]3[C@@H]1O [Cytochalasin B]
range of concentrations that were non-toxic or non-cytostatic (clonal growth over 7 days in different concentrations of the drug, number of surviving colonies counted): 1.0 to 10 µg/mL | optimal concentration in the medium to treat viable cells (old cells, treatment for 12 hours, solution in the medium): 4 µg/mL
